Where a SMILES comes first, the peptide text is derived from it.
System: fungal mating GPCRs (Ste2-like, xy.Ste2) expressed in S. cerevisiae strain JTy014
Format: cell-based, Ascomycete species of the code; expressed in S. cerevisiae
Details: GPCR of the same code; for Bttm (basal activation) / Span / Top (maximal activation): fit parameter of the dose-response curve, A600-normalised RFP fluorescence, 8 h, triplicate; for Fold Change: fold activation, peptide-treated maximum over water-treated A600-normalised fluorescence; for Hill Slope: four-parameter fit of the dose-response curve (dynamic range)

| Compound | Bttm (basal activation) | Span | Top (maximal activation) | Fold Change | Hill Slope |
| --- | --- | --- | --- | --- | --- |
| FCWRPGQPCG [Pd, mature mating peptide ligand 1, Pseudogymnoascus destructans] | 28.8 | 161.2 | 190.0 | 6.6 | 0.7 |
| KPHWTTYGYYEPQ [Cp, mature mating peptide ligand 1, Candida parapsilosis] | 36.2 | 217.8 | 254.0 | 7.0 | 0.8 |
| CC[C@H](C)[C@H](NC(=O)[C@H](Cc1c[nH]c2ccccc12)NC(=O)CN)C(=O)NCC(=O)N[C@@H](CCCNC(=N)N)C(=O)N[C@@H](CS)C(=O)NCC(=O)N[C@H](C(=O)N1CCC[C@H]1C(=O)NCC(=O)N[C@@H](CO)C(=O)N[C@@H](CO)C(=O)N[C@@H](CS)C(=O)O)C(C)C [Bm] (H-GWIGRCGVPGSSC-OH; N-terminus and C-terminus assumed) | 30.3 | 128.4 | 158.8 | 5.2 | 1.2 |
| WCMRPGQPCW [Bb, mature mating peptide ligand 1, Beauvaria bassiana] | 25.2 | 218.9 | 244.1 | 9.7 | 1.0 |
| WCGRPGQPC [Bc, mature mating peptide ligand 1, Botrytis cinerea] | 28.6 | 323.3 | 351.9 | 12.3 | 0.7 |
| WCYRIGEPCW [Hj, mature mating peptide ligand 1, Hypocrea jecorina] | 53.0 | 376.5 | 429.5 | 8.1 | 0.6 |
| QWCR---IHGQSCW [Nc, mature mating peptide ligand 1, Neurospora crassa] | 27.6 | 259.2 | 286.7 | 10.4 | 0.6 |
| WCTRPGQGC [Pb, mature mating peptide ligand 1, Paracoccidioides brasiliensis] | 20.2 | 196.9 | 217.1 | 10.8 | 0.5 |
| WCGHIGQGC [Pr, mature mating peptide ligand 1, Penicillium chrysogenum] | 27.9 | 179.4 | 207.3 | 7.4 | 0.6 |
